# Laboratory results: patent publication US20180116216A1, “MICROBICIDAL COMPOSITION CONTAINING GLUTARALDEHYDE AND ORTHOPHENYLPHENOL” (Dow Global Technologies LLC, priority 2015, published 2018)
# Like-named read-outs stand apart in the source and are kept apart here.
# Test system: Bacterial Pool
# Experiment: Dow time-kill test in pH 7.4 hand dish-washing liquid, with synergy index (Kull)
# Type: cell-based
# Conditions: for Concentration required to achieve >=4 Log bacterial counts reduction of tested biocides: 37° C., pool of seven bacteria 1×10^6~1×10^7 CFU/ml in pH 7.4 hand dish-washing liquid, active ingredient basis, unit ppm from b8, not given
SMILES,Concentration required to achieve >=4 Log bacterial counts reduction of tested biocides (24 h),"Concentration for >=4 log bacterial kill (Table 4, Bacterial Pool, 24 hours, glutaraldehyde alone (QA) or in the mixture (Qa), read-out: Minimum Inhibitory Concentration (ppm) Glut)","Minimum Inhibitory Concentration (ppm) Glut (Table 5, Bacterial Pool, 24 hours, glutaraldehyde alone (QA) or in the mixture (Qa))","Concentration for >=4 log bacterial kill (24 h, read-out: Minimum Inhibitory Concentration (ppm) SOPP)","Minimum Inhibitory Concentration (ppm) SOPP (Table 5, Bacterial Pool, 24 hours, SOPP alone (QB) or in the mixture (Qb))"
"O=CCCCC=O [Glutaraldehyde, Pentane-1,5-dial]",100 ppm,100 µg/mL,100 ppm,–,–
"Oc1ccccc1-c1ccccc1.[Na] [SOPP alone, sodium orthophenylphenol]",358.5 ppm,–,–,358 µg/mL,358.5 ppm
